{"source": "patent EP2511272B1", "about": "“Synthetic analogues of abscisic acid with anti-inflammatory and insulin release stimulation effects on human cells” (Universita' degli Studi di Genova, priority 2011, dated 2012)", "key": {"[1]": {"tested_on": "granulocytes", "experiment": "Inhibition of ABA-induced chemotaxis (granulocyte migration, ChemoTx)", "assay_type": "cell-based, human", "method": "After ON (overnight) incubation in complete DMEM/F12, granulocytes were washed in HBSS and then were resuspended at the concentration of 1x10^7 cells/ml in chemotaxis buffer (HBSS:PBS:5% albumin; 39:16:1).\nChemotaxis was carried out on 96-well plates ChemoTx system microplates (Neuro Probe, Inc., Gaithersburg, MD, U.S.A.) with a polycarbonate filter with 3 µm-diameter pores. The compound prepared according to example 1 was diluted in chemotaxis buffer at various concentrations (5 µM, 100 nM, 1 nM, 0.1 nM) and was added, either alone or together with a solution of 1 µM ABA to the bottom of the plate. The suspension of the cells (25 µl/well) was added to the filter and the plate was incubated for 90 minutes at 37 °C. The migrated cells were transferred to a white 96-well plate and were counted with 60 µl of a solution containing 0.2 % (v/v) of Nonidet P40 and 1 µM Sitox green. After a 20-minute incubation at 37 °C, the fluorescence was measured with Fluostar OPTIMA fluorometer (excitation wavelength λexc = 485 nm and emission wavelength λemis = 520 nm) and the cell number was computed by using a standard cellular curve obtained from serial diltion cellular suspension of granulocytes. The result is expressed as the \"chemotactic index\" (CI), which corresponds to the ratio of the number of cells migrated towards the chemoattractant divided by the number of cells migrated towards the substrate). A chemotactic index higher than 1 is indicative of chemoattraction of cells. The test was carried out three times in sextuplicate."}, "[2]": {"experiment": "Stability after extraction from human plasma (HPLC-MS)", "assay_type": "in vitro ADME", "conditions": "for Stability after extraction (amount found): Plasma, 10 µM", "method": "Compound prepared according to example 1 was tested for stability at 10 µM concentration in deionized water, phosphate buffer (HBSS with calcium and magnesium) and human plasma for 0 and after 24 hrs at 37 °C, by carrying out the extraction as described in Materials and Methods, and subsequent HPLC-MS analysis for the analyte of interest.\nFor stability tests, to 2 ml of deionized water, HBSS or human plasma, the compound of example 1 (10 µM) and 5,000 cpm of [^3H]ABA were added, for the purpose of evaluating the recovery after the extraction procedure. The so prepared samples were exctracted at time 0 and after 24 hrs.\nFor the extraction, 8 ml was added of distilled methanol (methanol/water : 80/20 vol/vol) and the mixture was kept at -20 °C overnight.\nThe following day the samples were centrifuged at 800xg for 10 minutes and the supernatant was concentrated to dryness by Rotavapor. The reconstituted aqueous solution was acidified at pH 2.6 with 10 % trifluoroacetric acid (TFA) and was extracted three times with diethyl ether (diethyl ether/water: 1:1 vol/vol).\nThe ethereal phase was finally removed by Rotavapor and the extraxt was resuspended in 1 ml of HBSS; 8 µl of such solution was analysed by HPLC-MS, and 100 µl was used for radioactivity counting by a Packard β-counter in order to compute extraction recovery.\n(§1) The HPLC-MS system used consists of an Agilent 1100 capillary chromatograph equipped with a diode array detector (DAD) and coupled with an Agilent 1100 series LC/MSD Trap mass spectometer with orthogonal electrospray source and a ionic-trap analyser.\n(§2) The detection wavelength was 254 nm and the MS spectrum was recorded in negative ions mode in an m/z range of 50-300.\n(§3) The amount of compound of example 1 in the extracts and supernatants was computed as the area of the peak under the extracted ion current m/z 279.3, normalized for the ionization efficiency of internal standard (hexadeuterated ABA) used for HPLC-MS analysis. Furthermore, the concentration was computed using the recovery rates obtained from the evaluation of counts per minute (cpm) of extracted [^3H]ABA."}, "[3]": {"experiment": "Stability without extraction in H2O and HBSS (HPLC-MS)", "assay_type": "physicochemical", "conditions": "10 µM, 37 °C", "method": "Additionally, stability tests were carried out in water, in HBSS and in HBSS in the presence of human granulocytes at time 0, and after 1 and 2 hrs at 37 °C, and carrying out HPLC-MSS analysis without extracting the analyte of interest.\nIn order to test the compound prepared according to example 1 for stability in HBSS in the presence, or absence, of granulocytes, 1 x 10^8 cells were used in 2 ml of HBSS (with calcium and magnesium added) containing 10 µM of compound prepared according to example 1 at 37°C. Samples of 500 µl each were drawn at time 0, and after 1 and 2 hrs and the cells were separated by centrifugation at 200xg for 5 minutes; the supernatant was then recovered and directly analysed in HPLC-MS.\nas §1, §2, §3"}, "[4]": {"tested_on": "Human pancreatic beta cells", "experiment": "Insulin release (secretion index) by human pancreatic beta cells", "assay_type": "cell-based", "method": "Human pancreatic beta cells were incubated in 5 […], or 25 mM glucose (HG), in the absence or in the presence of 100 nM ABA or of compound according to example 1 ([…]). Insulin release is expressed as the secretion index (SI) relative to insulin release in LG..\nAs in the preceding example, for the experimental procedere, reference may be made to the there cited paper, except for the specific use of compound according to example 1. TABLE 13. Effect of ABA and of compound prepared according to example 1 on insulin release (SI) by human pacreatic beta cells at 30 minutes and 120 minutes."}, "[5]": {"molecular_target": "T1, ABA receptor (Homo sapiens, UniProt Q9NS86)", "T1 construct": "Human granulocytes (7 x 10^6 per point), after ON incubation in complete DMEM/F12, were incubated in triplicate; endogenous in cells; host or cells: human granulocytes (intact cells)", "T1 sequence (Q9NS86 1-450)": "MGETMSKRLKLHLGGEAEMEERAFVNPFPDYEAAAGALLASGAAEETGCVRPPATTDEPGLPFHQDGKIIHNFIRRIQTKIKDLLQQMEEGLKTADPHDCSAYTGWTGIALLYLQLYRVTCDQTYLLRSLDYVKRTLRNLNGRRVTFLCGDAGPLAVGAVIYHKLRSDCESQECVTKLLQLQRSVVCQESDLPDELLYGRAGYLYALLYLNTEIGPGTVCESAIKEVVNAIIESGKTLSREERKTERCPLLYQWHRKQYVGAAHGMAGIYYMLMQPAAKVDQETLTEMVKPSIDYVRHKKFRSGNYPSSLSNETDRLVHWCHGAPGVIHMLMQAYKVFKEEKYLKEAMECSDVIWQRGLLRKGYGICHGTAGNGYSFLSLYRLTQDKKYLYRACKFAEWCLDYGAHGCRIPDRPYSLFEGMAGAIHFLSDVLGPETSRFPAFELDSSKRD", "conditions": "value used in Cheng-Prusoff equation (Yamazaki e al., 2003); cited from earlier work"}, "[6]": {"conditions": "LG, substance 100 nM, at 30 minutes"}, "[7]": {"conditions": "LG, substance 100 nM, at 120 minutes"}}}
{"smiles": "CC(=C/C(=O)O)/C=C/C1(O)C(C)(C)CC(=O)C2OC21C", "note": "(stereo not drawn) [Example 1, 2'α,3'α-dihydro-2'α,3'α-epoxyabscisic acid]", "values": [{"measurement": "CI±SD (chemotactic index)", "setting": "[1]; ABA 1 µM + compound 0.1 nM", "value": "1.37±0.05"}, {"measurement": "CI±SD (chemotactic index)", "setting": "[1]; ABA 1 µM + compound 1 nM", "value": "1.32±0.05"}, {"measurement": "CI±SD (chemotactic index)", "setting": "[1]; ABA 1 µM + compound 100 nM", "value": "1.12±0.04"}, {"measurement": "CI±SD (chemotactic index)", "setting": "[1]; ABA 1 µM + compound 5 µM", "value": "0.78±0.03"}, {"measurement": "IC50", "setting": "[1]; Homo sapiens", "value": "~1", "unit": "nM"}, {"measurement": "inhibition at 0.0001 µM", "setting": "[1]; Homo sapiens, migration towards ABA 1 µM, compound 0.1 nM", "value": 38, "unit": "%"}, {"measurement": "inhibition at 0.001 µM", "setting": "[1]; Homo sapiens, migration towards ABA 1 µM, compound 1 nM", "value": 47, "unit": "%"}, {"measurement": "inhibition at 0.1 µM", "setting": "[1]; Homo sapiens, migration towards ABA 1 µM, compound 100 nM", "value": 80, "unit": "%"}, {"measurement": "inhibition at 5 µM", "setting": "[1]; Homo sapiens, migration towards ABA 1 µM, compound 5 µM", "value": 100, "unit": "%"}, {"measurement": "Stability after extraction (amount found)", "setting": "[2]; 0 hr, equals extraction yield, listed as compound of example 1", "value": 56, "unit": "%"}, {"measurement": "Stability after extraction (amount found)", "setting": "[2]; 0 hr, equals extraction yield, listed as compound prepared according to example 1", "value": 56, "unit": "%"}, {"measurement": "Stability after extraction (amount found)", "setting": "[2]; 24 hrs at 37 °C", "value": 49, "unit": "%"}, {"measurement": "degradation", "setting": "[2]; in plasma, 0 vs 24 hrs", "value": 7, "unit": "%"}, {"measurement": "Stability (without extraction)", "setting": "[3]; H2O, 0 hr", "value": 100, "unit": "%"}, {"measurement": "Stability (without extraction)", "setting": "[3]; H2O, 1 h", "value": 100, "unit": "%"}, {"measurement": "Stability (without extraction)", "setting": "[3]; H2O, 2 hrs", "value": 98, "unit": "%"}, {"measurement": "Stability (without extraction)", "setting": "[3]; HBSS, 0 hr", "value": 100, "unit": "%"}, {"measurement": "Stability (without extraction)", "setting": "[3]; HBSS, 1 h", "value": 100, "unit": "%"}, {"measurement": "Stability (without extraction)", "setting": "[3]; HBSS, 2 hrs", "value": 89, "unit": "%"}, {"measurement": "SI (insulin secretion index relative to LG)", "setting": "[4]; HG, ABA (100 nM) + compound (100 nM) together, time not printed in the row", "value": "3,8"}, {"measurement": "SI (insulin secretion index relative to LG)", "setting": "[4]; LG, ABA (100 nM) + compound (100 nM) together, time not printed in the row", "value": "0,72"}, {"measurement": "SI (insulin secretion index relative to LG)", "setting": "[4]; [6]", "value": "1,8"}, {"measurement": "SI (insulin secretion index relative to LG)", "setting": "[4]; [7]", "value": "2,2"}]}
{"smiles": "CC1=CC(=O)CC(C)(C)C1(O)/C=C/C(C)=C\\C(=O)O", "note": "(racemic) [ABA, (2Z,4E)-5-(1-hydroxy-2,6,6-trimethyl-4-oxo-2-cyclohexen-1-yl)-3-methyl-2,4-pentadienoic acid, reference compound]", "values": [{"measurement": "CI±SD (chemotactic index)", "setting": "[1]; ABA 1 µM alone", "value": "1.63±0.10"}, {"measurement": "SI (insulin secretion index relative to LG)", "setting": "[4]; [6]", "value": "0,91"}, {"measurement": "SI (insulin secretion index relative to LG)", "setting": "[4]; [7]", "value": "1,8"}, {"measurement": "Kd", "setting": "[5]", "value": 11, "unit": "nM"}]}
